Assay results as given in patent publication US20180201609A1 (AURIGENE DISCOVERY TECHNOLOGIES LIMITED, priority 2015, published 2018).
Counter-ions that a name gives are not always drawn.

Target: T1, IRAK-4 enzyme (Homo sapiens, UniProt Q9NWZ3)
T1 construct: purchased Millipore, USA
T1 sequence (Q9NWZ3 1-460): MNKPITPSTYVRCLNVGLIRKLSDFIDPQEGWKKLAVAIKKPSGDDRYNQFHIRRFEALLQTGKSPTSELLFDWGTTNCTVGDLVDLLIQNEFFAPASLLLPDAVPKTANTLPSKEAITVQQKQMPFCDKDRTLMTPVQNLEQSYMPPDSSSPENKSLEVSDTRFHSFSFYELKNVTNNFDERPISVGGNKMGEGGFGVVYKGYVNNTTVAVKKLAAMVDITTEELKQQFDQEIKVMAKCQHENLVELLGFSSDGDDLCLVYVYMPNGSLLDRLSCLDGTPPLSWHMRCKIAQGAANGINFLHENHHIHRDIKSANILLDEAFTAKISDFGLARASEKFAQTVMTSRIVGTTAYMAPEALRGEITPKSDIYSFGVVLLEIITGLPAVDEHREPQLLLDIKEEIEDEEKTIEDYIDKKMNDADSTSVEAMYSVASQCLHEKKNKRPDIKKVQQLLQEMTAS
Assay: IRAK-4 Biochemical Assay (TR-FRET)
Conditions: recombinant IRAK-4 kinase, 20 μM ATP; for inhibition at 0.1 µM: 0.1 μM compound; for inhibition at 1 µM: 1 μM compound
Description: Compounds were tested for their potential to inhibit IRAK-4 enzyme in a TR-FRET assay using recombinant IRAK-4 kinase from Millipore, USA. The assay buffer was 50 mM Tris-HCl pH 7.5, 20 mM MgCl2, 1 mM EGTA, 2 mM DTT, 3 mM MnCl2 and 0.01% Tween 20.5 ng of IRAK-4 kinase was used for the assay. After pre-incubation of enzyme with test compound for 30 minutes at room temperature, a substrate mixture containing 100 nM Biotin Histone H3 (Millipore, USA) and 20 μM ATP (Sigma, USA) was added and the reaction was incubated for 30 min. Post incubation, the reaction was stopped by the addition of stop mix containing 40 mM EDTA, 1 nM of Europium-Anti-Phospho-Histone H3 (Ser10) antibody (Perkin Elmer, USA) and 20 nM SureLight Allophycocyanin-Streptavidin (Perkin Elmer, USA). The fluorescence emission at 615 nm and 665 nm were measured at an excitation of 340 nm and the percent inhibition was estimated from the ratio of the fluorescence intensities [(F665/F615)×10000].
The compounds of the present invention were screened in the above mentioned assay and the percent inhibition data is summarized in the Table 1.

SMILES | inhibition at 0.1 µM | inhibition at 1 µM
Cn1ncc2cc(NC(=O)c3coc(-c4cccnc4N)n3)c(N3CCC(O)CC3)cc21 [Example 1, 2-(2-aminopyridin-3-yl)-N-(6-(4-hydroxypiperidin-1-yl)-1-methyl-1H-indazol-5-yl)oxazole-4-carboxamide hydrochloride] | 96% | 97%
Cc1cc(-c2nc(C(=O)Nc3cc4cnn(CCN(C)C)c4cc3N3CCC(O)CC3)co2)ccn1 [Example 2, N-(1-(2-(dimethylamino)ethyl)-6-(4-hydroxypiperidin-1-yl)-1H-indazol-5-yl)-2-(2-methylpyridin-4-yl)oxazole-4-carboxamide] | 95% | 98%
Cc1cc(-c2nc(C(=O)Nc3cc4cnn(CCN5CCOCC5)c4cc3N3CCC(O)CC3)co2)ccn1 [Example 3, N-(6-(4-hydroxypiperidin-1-yl)-1-(2-morpholinoethyl)-1H-indazol-5-yl)-2-(2-methylpyridin-4-yl)oxazole-4-carboxamide] | 97% | 100%
COCCCn1ncc2cc(NC(=O)c3coc(-c4ccnc(C)c4)n3)c(N3CCC(O)CC3)cc21 [Example 4, N-(6-(4-hydroxypiperidin-1-yl)-1-(3-methoxypropyl)-1H-indazol-5-yl)-2-(2-methylpyridin-4-yl)oxazole-4-carboxamide hydrochloride] | 95% | 99%
Cc1cc(-c2nc(C(=O)Nc3cc4cnn(CCCN5CCOCC5)c4cc3N3CCC(O)CC3)co2)ccn1 [Example 5, N-(6-(4-hydroxypiperidin-1-yl)-1-(3-morpholinopropyl)-1H-indazol-5-yl)-2-(2-methylpyridin-4-yl)oxazole-4-carboxamide] | 94% | 99%
Cc1cc(-c2nc(C(=O)Nc3cc4cnn(CCN5CCN(C)CC5)c4cc3N3CCC(O)CC3)co2)ccn1 [Example 6, N-(6-(4-hydroxypiperidin-1-yl)-1-(2-(4-methylpiperazin-1-yl)ethyl)-1H-indazol-5-yl)-2-(2-methylpyridin-4-yl)oxazole-4-carboxamide] | 79% | 96%
COCCn1ncc2cc(NC(=O)c3coc(-c4ccnc(N)c4)n3)c(N3CCC(O)CC3)cc21 [Example 7, 2-(2-aminopyridin-4-yl)-N-(6-(4-hydroxypiperidin-1-yl)-1-(2-methoxyethyl)-1H-indazol-5-yl)oxazole-4-carboxamide hydrochloride] | 96% | 98%
Cc1nn(C)c2cc(N3CCC(CO)CC3)c(NC(=O)c3cnn4cccnc34)cc12 [Example 8, N-(6-(4-(hydroxymethyl)piperidin-1-yl)-1,3-dimethyl-1H-indazol-5-yl)pyrazolo[1,5-a]pyrimidine-3-carboxamide hydrochloride] | 43% | 91%
COCCn1nc(C)c2cc(NC(=O)c3coc(-c4ccnc(N)c4)n3)c(N3CCC(O)CC3)cc21 [Example 9, 2-(2-aminopyridin-4-yl)-N-(6-(4-hydroxypiperidin-1-yl)-1-(2-methoxyethyl)-3-methyl-1H-indazol-5-yl)oxazole-4-carboxamide] | 97% | 99%
COCCn1nc(C)c2cc(NC(=O)c3coc(-c4ccnc(N)c4)n3)c(N3CCC(CO)CC3)cc21 [Example 10, 2-(2-aminopyridin-4-yl)-N-(6-(4-(hydroxymethyl)piperidin-1-yl)-1-(2-methoxyethyl)-3-methyl-1H-indazol-5-yl)oxazole-4-carboxamide hydrochloride] | 99% | 99%
Cc1nn(C)c2cc(N3CCC(CO)CC3)c(NC(=O)c3coc(-c4cc(F)c(=O)n(C)c4)n3)cc12 [Example 11, 2-(5-fluoro-1-methyl-6-oxo-1,6-dihydropyridin-3-yl)-N-(6-(4-(hydroxymethyl)piperidin-1-yl)-1,3-dimethyl-1H-indazol-5-yl)oxazole-4-carboxamide hydrochloride] | 26% | 59%
C=CCOCC1CCN(c2cc3c(cc2NC(=O)c2coc(-c4ccnc(N)c4)n2)c(C)nn3C)CC1 [Example 12, N-(6-(4-((allyloxy)methyl)piperidin-1-yl)-1,3-dimethyl-1H-indazol-5-yl)-2-(2-aminopyridin-4-yl)oxazole-4-carboxamide] | 95% | 96%
Cc1cc(-c2nc(C(=O)Nc3cc4cn(C)nc4nc3N3CCCCC3)co2)ccn1 [Example 13, N-(2-methyl-6-(piperidin-1-yl)-2H-pyrazolo[3,4-b]pyridin-5-yl)-2-(2-methylpyridin-4-yl)oxazole-4-carboxamide hydrochloride] | 98% | 99%
Cn1cc2cc(NC(=O)c3cccc(N4CC[C@H](O)C4)n3)c(N3CCCCC3)nc2n1 [Example 14, (S)-6-(3-hydroxypyrrolidin-1-yl)-N-(2-methyl-6-(piperidin-1-yl)-2H-pyrazolo[3,4-b]pyridin-5-yl)picolinamide] | 57% | 94%
Cn1cc2cc(NC(=O)c3cccc(N4CC[C@H](N)C4)n3)c(N3CCCCC3)nc2n1 [Example 15, (S)-6-(3-aminopyrrolidin-1-yl)-N-(2-methyl-6-(piperidin-1-yl)-2H-pyrazolo[3,4-b]pyridin-5-yl)picolinamide] | 34% | 78%
Cc1cc(-c2nc(C(=O)Nc3cc4cnn(C)c4nc3N3CCCCC3)co2)ccn1 [Example 16, N-(1-methyl-6-(piperidin-1-yl)-1H-pyrazolo[3,4-b]pyridin-5-yl)-2-(2-methylpyridin-4-yl)oxazole-4-carboxamide] | 99% | 99%
Cn1cc2cc(NC(=O)c3coc(N4CC[C@H](N)C4)n3)c(N3CCCCC3)nc2n1 [Example 17, (S)-2-(3-aminopyrrolidin-1-yl)-N-(2-methyl-6-(piperidin-1-yl)-2H-pyrazolo[3,4-b]pyridin-5-yl)oxazole-4-carboxamide] |  | 90%
Cn1cc2cc(NC(=O)c3coc(N4CC[C@H](O)C4)n3)c(N3CCCCC3)nc2n1 [Example 18, (S)-2-(3-hydroxypyrrolidin-1-yl)-N-(2-methyl-6-(piperidin-1-yl)-2H-pyrazolo[3,4-b]pyridin-5-yl)oxazole-4-carboxamide] |  | 93%
C[C@H](O)Cn1cc(-c2cccc(C(=O)Nc3cc4cn(C)nc4nc3N3CCCCC3)n2)cn1 [Example 19, (S)-6-(1-(2-hydroxypropyl)-1H-pyrazol-4-yl)-N-(2-methyl-6-(piperidin-1-yl)-2H-pyrazolo[3,4-b]pyridin-5-yl)picolinamide] |  | 96%
Cc1cnccc1-c1nc(C(=O)Nc2cc3cn(C)nc3nc2N2CC[C@H](O)C2)co1 [Example 20, (S)—N-(6-(3-hydroxypyrrolidin-1-yl)-2-methyl-2H-pyrazolo[3,4-b]pyridin-5-yl)-2-(3-methylpyridin-4-yl)oxazole-4-carboxamide] |  | 72%
Cc1cc(-c2nc(C(=O)Nc3cc4cn(C)nc4nc3N3CC[C@H](O)C3)co2)ccn1 [Example 21, (S)—N-(6-(3-hydroxypyrrolidin-1-yl)-2-methyl-2H-pyrazolo[3,4-b]pyridin-5-yl)-2-(2-methylpyridin-4-yl)oxazole-4-carboxamide] |  | 89%
Cn1cc2cc(NC(=O)c3coc(N4CC[C@H](O)C4)n3)c(C3CC3)nc2n1 [Example 22, (S)—N-(6-cyclopropyl-2-methyl-2H-pyrazolo[3,4-b]pyridin-5-yl)-2-(3-hydroxypyrrolidin-1-yl)oxazole-4-carboxamide] |  | 65%
Cc1cc(-c2nc(C(=O)Nc3cc4cnn(C)c4nc3N3CC[C@H](O)C3)co2)ccn1 [Example 23, (S)—N-(6-(3-hydroxypyrrolidin-1-yl)-1-methyl-1H-pyrazolo[3,4-b]pyridin-5-yl)-2-(2-methylpyridin-4-yl)oxazole-4-carboxamide] |  | 33%
Cn1cc2cc(NC(=O)c3coc(-c4ccnc(N)c4)n3)c(N3CCCCC3)nc2n1 [Example 24] | 99% | 99%
COCCn1ncc2cc(NC(=O)c3coc(-c4ccnc(C)c4)n3)c(N3CCC(O)CC3)nc21 [Example 25, N-(6-(4-hydroxypiperidin-1-yl)-1-(2-methoxyethyl)-1H-pyrazolo[3,4-b]pyridin-5-yl)-2-(2-methylpyridin-4-yl)oxazole-4-carboxamide] | 67% | 97%
